Tests used:
BT-474 cells = assay: Sulforhodamine B (SRB) cell viability assay with ERβ-specific ligands; type: cell-based, human; details: for cell viability: Ro 48-8071 combined with ERβ agonist DPN: BT-474, 10 nM Ro 48-8071 ± 1 nM DPN, 48 h; for cell viability: Ro 48-8071 combined with ERβ antagonist PHTPP: BT-474, 10 nM Ro 48-8071 ± 10 or 100 nM PHTPP, 24 h
Protocol: FIG. 6. […] BT-474 cells were treated with 10 nM Ro 48-8071±1 nM DPN, or with DPN alone. Cell viability was determined after 48 h using the SRB assay.
FIG. 7. […] BT-474 cells treated with 10 nM Ro 48-8071 for 24 h±10 or 100 nM PH, or with PHTPP alone. Cell viability was determined after 24 h as described previously. […] The anti-proliferative effects of Ro 48-8071 in breast cancer cells is reduced when it is combined with ERβ antagonist.
The sulforhodamine B (SRB) assay was employed to evaluate the effect potent cholesterol biosynthesis inhibitor Ro 48-8071 alone or in combination with ERβ-specific ligands on viability of breast cancer cells, with slight modification of the original procedure established at NCI. Ro 48-8071, and ERβ-specific ligands (either an agonist DPN (diarylpropionitrile), or an antagonist PHTPP (4-[2-phenyl-5,7-bis(trifluoromethyl) pyrazolo[1,5-a]pyrimidin-3-yl]phenol)) (“PH”) were used in BT-474, T47-D, MDA-MB-231, and BT-20 human breast cancer cells in this study.
Accordingly, cells were seeded in 96-well plates in 100 μL culture medium and incubated overnight at 37° C. with 5% CO2. Culture medium was removed after 24 h, and the attached cells were washed with DMEM/F12 medium and treated by Ro 48-8071 alone or with ERβ-specific ligands at various concentrations for 24-48 hrs. […]
The surviving or adherent cells were fixed in situ by withdrawing the growth medium and adding 100 μL of PBS and 100 μL of 50% cold trichloroacetic acid and then incubating at 4° C. for 1 h. Attached cells (that had survived) were washed 5 times with ice-water, dried at room temperature (RT), and then stained with 50 μL […] SRB for 8 min at room temperature (RT). Unbound dye was removed by washing 5 times with cold 1% acetic acid, and the plates were dried at RT. Bound stain was solubilized with 150 μL 10 mM Tris buffer, and absorbance of samples measured at 520 nm with a SpecTRA MAX 190 microplate reader (Sunnyvale, Calif.). Six wells were used for each concentration, and each experiment was performed at least twice.

T47-D cells = assay: SRB cell viability assay after ERβ siRNA knockdown; type: cell-based, human; details: 60 nM ERβ siRNA, Ro 48-8071 10 nM, 48 h
Protocol: FIG. 5. […] T47-D cells were treated with either ERβ siRNA (30 and 60 nM; siERβ, Santa Cruz), scrambled RNA (siC) or transfection reagent alone (C) for 72 h (upper panel). In the group treated with 60 nM siRNA, cells were treated with Ro 48-8071 (10 nM) or vehicle alone (C) for 48 h (lower panel) and tumor cell viability was determined using SRB assay as described.
ERβ siRNA (human) and control siRNA were obtained from Santa Cruz Biotechnology, Inc. (Santa Cruz, Calif., e.g. catalog no.s SC-35325 and SC-37007). ERβ siRNA is a pool of 3 target-specific 20-25 nt siRNA designed to knock down ERβ gene expression.
Transfection reagent, oligonucleotides and medium, Opti-MEM were from Invitrogen (Carlsbad, Calif.). The day before transfection, cells were seeded in six-well plates at a density of 8×10̂4 cells per well with 10% FBS DMEM/F12 medium.
To make solution A, ERβ siRNA was diluted in Opti-MEM, resulting in a final concentration of 30 or 60 nM in 100 μl/well and incubate for 5 min at room temperature (RT). […]
The surviving or adherent cells were fixed in situ by withdrawing the growth medium and adding 100 μL of PBS and 100 μL of 50% cold trichloroacetic acid and then incubating at 4° C. for 1 h. […] Bound stain was solubilized with 150 μL 10 mM Tris buffer, and absorbance of samples measured at 520 nm with a SpecTRA MAX 190 microplate reader (Sunnyvale, Calif.). […]

Bcl-2 = assay: Western blot analysis of Bcl-2 protein in T47-D breast cancer cells; type: cell-based, human; details: treatment for six hours
ERα = assay: Western blot analysis of ERα protein in breast cancer cells; type: cell-based, human; details: for expression of ERα protein: treatment for six hours, dose-dependent
Protocol: (§1) Cells used in these experiments included both the ERα+ve as well as ERα-ve cells, including triple negative types which are very aggressive growing. The ERα+ve cells used were T47-D and BT-474 cells. The ERα-ve cells used were MDA-MB-231, BT-20 and SkBr-3 cells. All cells were grown in media as specified in the data sheet from A TCC, provider of cell lines.
(§2) Whole cell extracts of breast cancer cells were prepared using a whole cell extract kit (Active Motif, Carlsbad, Calif.). Briefly, after treatment with Ro 48-8071, cells were washed once with PBS, harvested with 0.05% trypsin-EDT A, and centrifuged at 200 g at 4° C. for 5 min. Cell pellets were resuspended in lysis buffer and supernatant was transferred into pre-chilled microcentrifuge tubes and incubated on ice for 30 minutes. Samples were centrifuged at 14,000×g at 4° C. for 20 minutes, and supernatant was transferred to pre-chilled microcentrifuge tubes. Aliquots of samples were stored at −80° C. For western blot analysis, samples containing 50 μg of protein were separated in a NuPAGE 10% Bis-Tris Gel (Invitrogen, Carlsbad, Calif.).
(§3) Electrophoresis was performed at 120 V for 2 h using NuPAGE MES-SDS Running Buffer. Separated proteins were transferred to polyvinylidene difluoride membranes (BioRad Laboratories, Hercules, Calif.) at 35 V for 1.5 h.
(§4) Blots were blocked at room temperature (RT) for 1 hr in TBS containing 0.1% Tween 20 (TBS-T) and 5% nonfat dry milk and incubated with antibodies for ERα (dilution 1:200) for 2 h at room temperature, and ERβ (dilution 1:150) at 4° C. overnight. Blots were washed 3 times with TBS-T and incubated with secondary antibody for 1 h at RT before being washed a further 7 times with TBS-T.
(§5) Immunoreactive bands were visualized using an ECL Plus detection kit (Amersham, Pharmacia Biotech, Arlington Heights, Ill.). Membranes were stripped and re-blotted for beta-actin (Sigma), which was used as a control for protein loading. β-actin was used as a loading control to determine amount of total protein loaded in each lane.

OSC = target: T1, OSC (Homo sapiens, UniProt P48449); details: cited from earlier work
T1 sequence (P48449 1-732): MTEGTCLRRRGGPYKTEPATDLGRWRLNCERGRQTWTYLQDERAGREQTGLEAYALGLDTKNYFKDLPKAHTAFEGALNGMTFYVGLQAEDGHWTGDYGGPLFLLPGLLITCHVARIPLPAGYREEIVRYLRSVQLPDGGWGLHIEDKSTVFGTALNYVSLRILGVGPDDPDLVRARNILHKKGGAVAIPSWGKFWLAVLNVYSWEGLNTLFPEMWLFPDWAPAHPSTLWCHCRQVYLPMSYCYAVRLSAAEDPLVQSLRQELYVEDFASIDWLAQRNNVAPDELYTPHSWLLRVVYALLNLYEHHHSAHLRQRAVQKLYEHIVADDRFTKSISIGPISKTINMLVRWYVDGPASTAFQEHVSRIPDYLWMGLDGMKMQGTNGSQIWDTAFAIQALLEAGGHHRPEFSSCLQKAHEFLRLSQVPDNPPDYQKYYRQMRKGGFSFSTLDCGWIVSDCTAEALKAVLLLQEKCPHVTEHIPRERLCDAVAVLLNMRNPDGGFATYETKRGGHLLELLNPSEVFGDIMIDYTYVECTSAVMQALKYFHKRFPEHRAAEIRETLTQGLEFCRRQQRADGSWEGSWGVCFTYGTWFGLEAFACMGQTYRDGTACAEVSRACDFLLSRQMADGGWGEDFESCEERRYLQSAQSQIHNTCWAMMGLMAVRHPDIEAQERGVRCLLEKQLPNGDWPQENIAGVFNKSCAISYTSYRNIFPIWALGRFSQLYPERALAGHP

ERβ = assay: Western blot analysis of ERβ protein in breast cancer cells; type: cell-based, human; details: for expression of ERβ protein: treatment for six hours, dose-dependent
Protocol: as §1, §2, §3, §4, §5

[1] = test system: human breast cancer xenografts; assay: Human breast cancer xenografts in nude mice; type: in vivo
Protocol: Female athymic nu/nu nude mice, 5 to 6 weeks-old (18-22 g) may be purchased from a number of suppliers, such as Harland Sprague-Dawley, Inc. Nude mice are inoculated with 17β-estradiol pellets (1.7 mg/pellet, 60 days release) 48 hours before inoculating tumor cells. BT-474 human breast cancer cells, 5×10^6 in 0.15 ml solution mixed with matrigel and DMEM/F12 medium (4/1, v/v) are injected into each flank of mouse subcutaneously and both flanks of each mouse are injected. When tumor volume reaches around 100 mm3, animal are randomly assigned to three groups and the treatment started with RO 48-8071 (5 mg/kg/day or 10 mg/kg/day) via tail-vein injection for five days, followed by same treatment every other day for five additional times Animals in control group receive the vehicle alone under identical conditions. Tumor volumes are measured by a digital caliper and calculated using the formula (L×W×H)×0.5236.

[2] = low dose, 10 or 100 nM, seven days

N#CC(Cc1ccc(O)cc1)c1ccc(O)cc1 (stereo not drawn) [DPN, 2,3-bis(4-hydroxyphenyl)-propionitrile]
cell viability: Ro 48-8071 combined with ERβ agonist DPN (BT-474 cells): potentiates the ability of Ro 48-8071 to reduce viability

Oc1ccc(-c2c(-c3ccccc3)nn3c(C(F)(F)F)cc(C(F)(F)F)nc23)cc1 [PHTPP, 4-[2-phenyl-5,7-bis(trifluoromethyl)pyrazolo[1,5-a]pyrimidin-3-yl]phenol]
cell viability: Ro 48-8071 combined with ERβ antagonist PHTPP (BT-474 cells): blocks the anti-proliferative effect of Ro 48-8071

C=CCN(C)CCCCCCOc1ccc(C(=O)c2ccc(Br)cc2)c(F)c1 [Ro 48-8071, (4-bromophenyl)[2-fluoro-4-[[6-(methyl-2-propenylamino)hexyl]oxy]phenyl]-methanone]
tumor cell viability: effect of ERβ knockdown on the anti-proliferative effect (T47-D cells): blocked the anti-proliferative effect | expression of Bcl-2 protein (Bcl-2): decreased with increasing dose | expression of ERα protein (ERα; BT-474 breast cancer cells): suppressed | expression of ERα protein (ERα; T47-D breast cancer cells): suppressed | expression of ERα (ERα; [2]): suppressed | OSC inhibition in words (OSC): potent inhibitor of OSC | expression of ERβ protein (ERβ; BT-474 breast cancer cells): induced | expression of ERβ (ERβ; ERα-negative (triple-negative) BT-20 cells): stimulates expression of ERβ | expression of ERβ (ERβ; ERα-negative (triple-negative) MDA-MB-231 cells): stimulates expression of ERβ | expression of ERβ protein (ERβ; T47-D breast cancer cells): induced | expression of ERβ (ERβ; [2]): induced | growth of human breast cancer xenografts [1]: inhibit growing of human breast cancer xenografts | toxicity in xenograft-bearing nude mice [1]: without toxicity | cell viability: Ro 48-8071 combined with ERβ agonist DPN (BT-474 cells): increased cell death more effectively (additively) | cell viability: Ro 48-8071 combined with ERβ antagonist PHTPP (BT-474 cells): reduced

CCN(CC)CCO[C@H]1CC[C@@]2(C)C(=CC[C@@H]3[C@@H]2CC[C@]2(C)C(=O)CC[C@@H]32)C1 [U18666A, 3-beta-(2-(diethylamino)ethoxy)androst-5-en-17-one]
OSC inhibition in words (OSC): potent inhibitor of OSC

— patent US20150366824A1, “INDUCTION OF ESTROGEN RECEPTOR BETA BY CHOLESTEROL BIOSYNTHESIS INHIBITORS AND METHODS OF TREATMENT OF CANCER” (THE CURATORS OF THE UNIVERSITY OF MISSOURI, priority 2012, published 2015)
